Drawing on patent US8420657B2 (Novartis AG, priority 2008, dated 2013), this text covers IC50 for 20 compounds.

In one experiment the target is T1, GST-JAK2(808-1132) (Homo sapiens, UniProt O60674).
T1 construct: GST-JAK2(808-1132); purchased Invitrogen (Carlsbad, USA) #4288
Nature of the experiment: JAK2 kinase assay (Caliper mobility shift, LabChip 3000). The experiment is classed as biochemical. The essentials: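 Eight-point compound series (final 10–0.003 μM) tested on purchased GST-JAK2 kinase domain (808-1132). Peptide FITC-JAK3tide plus ATP reacted 60 min, 30 °C, then quenched with EDTA; turnover from charge-based separation of substrate and product.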

Experiment [1] has as its system JAK1/JAK2-dependent nuclear translocation of STAT1-GFP in HT1080 fibrosarcoma cells. Nature of the experiment: STAT1 nuclear translocation assay (Cellomics), IFN-γ stimulated HT1080 STAT1-GFP cells. It counts as cell-based. The conditions noted are these: Homo sapiens, HT-1080, STAT1 translocation pathway. From the text: The medium-throughput (96-well format) cellular automated fluorescence microscopy Cellomics assay can be routinely used to assess the functional activation of Janus Kinases (JAKs), based on the nuclear translocation of their substrate, Signal Transducer and Activator of Transcription (STAT). Nuclear translocation can be monitored either in HT1080 fibrosarcoma cells stably transfected with STAT1 fused to Green Fluorescence Protein (GFP) or in U-2 OS osteosarcoma cells stably transfected with STAT5 fused to Green Fluorescence Protein (GFP). Stimulation of HT1080 cells with interferon-γ (IFN-γ) results in JAK1/JAK2-dependent nuclear translocation of STAT1-GFP, whereas stimulation of U-2 OS cells with recombinant human erythropoietin (rhEpo) results in JAK2-dependent nuclear translocation of STAT5-GFP, both of which can be quantified using the Cellomics Cyto/NucTrans software package. This assay may be used to provide an assessment of the nuclear-cytoplasmic differential (NCD) of STAT-GFP using Hoechst dye to define the boundaries of the nucleus.
HT1080 fibrosarcoma cells may be obtained from ATCC and can be cultured in alpha Modified Eagle Medium with 10% FCS. Cells can be transfected with pEGFP-N2 STAT1 using Fugene 6 Transfection Reagent following the manufacturers' protocol. 24 hours after transfection the medium can be replaced and selected in 1 mg/ml Geneticin.
Compounds can be dissolved in DMSO to a final stock concentration of 10 mM and stored as aliquots at 4° C. Compounds may be pre-diluted in 100% DMSO at 10 mM, 3 mM 1 mM, 0.3 mM, 0.1 mM, 0.03 mM, 0.01 mM and 0.003 mM. Subsequently, compounds may be diluted in medium and added in 50 μl to the cells. The final compound concentrations tested may be 10 μM, 3 μM 1 μM, 0.3 μM, 0.1 μM, 0.03 μM, 0.01 μM and 0.003 μM and the final DMSO concentration can be 0.1%.
HT1080 STAT1-GFP cells may be seeded at a density of 10,000 cells per well in clear-bottom black 96-well Packard View-Plates™. 16-24 hours later, the cells can be treated for 2 hours with 100 ng/ml IFN-γ, washed twice in pre-warmed PBS and fixed in 200 μl of pre-warmed fixation solution (PBS, 3.7% Formaldehyde) for 10 minutes. The plates may be washed twice in 200 μl PBS and incubated, protected from light, in 100 μl of DNA-staining solution (PBS, 0.5 μg/ml Hoechst-33342) for 1 minute. The plates may then be washed once in PBS, and 200 μl PBS finally added per well. The plates, being finally covered with a black adhesive, may be either read directly or stored at 4° C. for later imaging. Where appropriate, the compounds may be added 30 min before stimulation with IFN-γ.
The plates can be read on a Cellomics® ArrayscanII automated fluorescence microscope plate reader equipped with a Mercury-Xenon white light illumination source and a Zeiss Axiovert inverted microscope, using the XF100 dichroic/emission filter cube and matching excitation filters, 10× magnification, and a 0.3 numerical aperture objective. Image acquisition and analysis can be performed using a customized protocol based on the ‘NuclearTranslocation’ Bioapplication. For each well, multiple images (fields) can be acquired until a minimum of 1000 cells are counted using two 2 channels: Channel 1 (Hoechst)=focus+nuclear mask, Channel 2 (GFP)=signal quantification in mask areas as outlined below. Nuclei may be first identified based on the Hoechst staining and a mask generated for each nucleus that then serves as a template to generate a circle (eroded inwards by 1 pixel) and a 3 pixel-wide collar-like ring (off-set outwards by 1 pixel), in which the nuclear and cytoplasmic intensity of GFP, respectively, are quantified in the corresponding channel. High content analysis yields numerous measurements per cell and the GFP intensity differential between the nuclear and the cytoplasmic masks may be chosen as a measure of sub-cellular STAT-GFP relocation. The resulting values may be averaged for all cells in the well to return a single measurement plus standard deviation. […]

Structures are written as SMILES.

T1 sequence (O60674 808-1132): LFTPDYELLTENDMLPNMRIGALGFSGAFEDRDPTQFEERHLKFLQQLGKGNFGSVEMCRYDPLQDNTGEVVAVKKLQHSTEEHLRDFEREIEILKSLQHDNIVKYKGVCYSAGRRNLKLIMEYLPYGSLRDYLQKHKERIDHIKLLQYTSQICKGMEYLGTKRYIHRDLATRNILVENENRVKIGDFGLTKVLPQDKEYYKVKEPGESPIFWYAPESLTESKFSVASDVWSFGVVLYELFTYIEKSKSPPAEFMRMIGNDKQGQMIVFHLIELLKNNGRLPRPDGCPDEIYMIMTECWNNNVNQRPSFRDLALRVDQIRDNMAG

For `CN1CCN(C(=O)Cc2cccc(Nc3ncc4ccn(-c5ccc(S(C)(=O)=O)cc5)c4n3)c2)CC1` [Example 70, 2-{3-[7-(4-Methanesulfonyl-phenyl)-7H-pyrrolo[2,3-d]pyrimidin-2-ylamino]-phenyl}-1-(4-methyl-piperazin-1-yl)-ethanone], the IC50 at GST-JAK2(808-1132) stood at 5.6 nM; in experiment [1] it was 275 nM.
`COc1cc(Nc2ncc3ccn(-c4ccc(C(=O)N5CCOCC5)c(F)c4)c3n2)ccc1Cl` [Example 295, {4-[2-(4-Chloro-3-methoxy-phenylamino)-pyrrolo[2,3-d]pyrimidin-7-yl]-2-fluoro-phenyl}-morpholin-4-yl-methanone]: the IC50 stood at 14.5 nM at GST-JAK2(808-1132) and 795 nM in experiment [1].
As to `Cc1ccc(Nc2ncc3ccn(-c4ccc(CC(=O)N5CCS(=O)(=O)CC5)c(F)c4)c3n2)cc1C` [Example 156, 2-{4-[2-(3,4-Dimethyl-phenylamino)-pyrrolo[2,3-d]pyrimidin-7-yl]-2-fluoro-phenyl}-1-(1,1-dioxido-1-thiomorpholin-4-yl)-ethanone], the IC50 on GST-JAK2(808-1132) worked out at 13 nM; in experiment [1], 60 nM.
Regarding `CCN1CCN(C(=O)c2ccc(Nc3ncc4ccn(-c5cc(F)c(CN6CCOCC6)c(F)c5)c4n3)cc2)CC1` [Example 171, {4-[7-(3,5-Difluoro-4-morpholin-4-ylmethyl-phenyl)-7H-pyrrolo[2,3-d]pyrimidin-2-ylamino]-phenyl}-(4-ethyl-piperazin-1-yl)-methanone], the IC50 is under 3 nM at GST-JAK2(808-1132) and 260 nM in experiment [1].
For the compound `CCOc1ccc(Nc2ncc3ccn(-c4ccc(S(C)(=O)=O)cc4)c3n2)cc1OCC` [Example 1, (3,4-Diethoxy-phenyl)-[7-(4-methanesulfonyl-phenyl)-7H-pyrrolo[2,3-d]pyrimidin-2-yl]-amine], the figures for the IC50 (at GST-JAK2(808-1132); in experiment [1]) were under 3 nM and 43.5 nM, respectively.
Regarding `O=S1(=O)CCN(Cc2c(F)cc(-n3ccc4cnc(Nc5ccc(N6CCNCC6)nc5)nc43)cc2F)CC1` [Example 444, {7-[4-(1,1-Dioxido-thiomorpholin-4-ylmethyl)-3,5-difluoro-phenyl]-7H-pyrrolo[2,3-d]pyrimidin-2-yl}-(6-piperazin-1-yl-pyridin-3-yl)-amine], the results for the IC50 (at GST-JAK2(808-1132); in experiment [1]) were at most 3 nM and 90 nM, respectively.
As for `Cc1ccc(Nc2ncc3ccn(-c4ccc(CN5CCOCC5)cc4)c3n2)cc1C` [Example 160, (3,4-Dimethyl-phenyl)-[7-(4-morpholin-4-ylmethyl-phenyl)-7H-pyrrolo[2,3-d]pyrimidin-2-yl]-amine], the IC50 at GST-JAK2(808-1132) is 41.8 nM; in experiment [1], 973 nM.
As to `CN1CCN(C(=O)c2ccc(-n3ccc4cnc(Nc5ccc(F)cc5)nc43)cc2F)CC1` [Example 58, {2-Fluoro-4-[2-(4-fluoro-phenylamino)-pyrrolo[2,3-d]pyrimidin-7-yl]-phenyl}-(4-methyl-piperazin-1-yl)-methanone], the IC50 on GST-JAK2(808-1132) is 12 nM; in experiment [1], 5300 nM.
In the case of `Cc1ccc(Nc2ncc3cc(C)n(-c4ccc(CC(=O)N5CCN(C)CC5)cc4)c3n2)cc1C` [Example 161, 2-{4-[2-(3,4-Dimethyl-phenylamino)-6-methyl-pyrrolo[2,3-d]pyrimidin-7-yl]-phenyl}-1-(4-methyl-piperazin-1-yl)-ethanone], the IC50 at GST-JAK2(808-1132) stood at 870 nM; in experiment [1], 9350 nM.
The like results for `COc1cc(Nc2ncc3ccn(-c4cc(F)c(CN5CCOCC5)c(F)c4)c3n2)ccc1C` [Example 307, [7-(3,5-Difluoro-4-morpholin-4-ylmethyl-phenyl)-7H-pyrrolo[2,3-d]pyrimidin-2-yl]-(3-methoxy-4-methyl-phenyl)-amine] were, in that order, 14 nM and 120 nM.
The like results for `CN1CCN(Cc2ccc(Nc3ncc4ccn(-c5ccc(C(=O)N6CCOCC6)c(F)c5)c4n3)cc2)CC1=O` [Example 337, 4-(4-{7-[3-Fluoro-4-(morpholine-4-carbonyl)-phenyl]-7H-pyrrolo[2,3-d]pyrimidin-2-ylamino}-benzyl)-1-methyl-piperazin-2-one] were, in that order, 6.1 nM and 185 nM.
On to `O=C(c1c(F)cc(-n2ccc3cnc(Nc4ccc(CN5CCNC6(CC6)C5)cc4)nc32)cc1F)N1CCOCC1` [Example 257], for which the IC50 on GST-JAK2(808-1132) amounted to 10 nM; in experiment [1] it was 150 nM.
With `O=C(c1ccc(-n2ccc3cnc(Nc4ccc(CN5CCOCC5)cc4)nc32)cc1F)N1CCOCC1` [Example 288, {2-Fluoro-4-[2-(4-morpholin-4-ylmethyl-phenylamino)-pyrrolo[2,3-d]pyrimidin-7-yl]-phenyl}-morpholin-4-yl-methanone], the half-maximal inhibitory concentration (IC50) was under 3 nM at GST-JAK2(808-1132) and 67.5 nM in experiment [1].
In the case of `O=C(c1c(F)cc(-n2ccc3cnc(Nc4ccccc4)nc32)cc1F)N1CCOCC1` [Example 214, [2,6-Difluoro-4-(2-phenylamino-pyrrolo[2,3-d]pyrimidin-7-yl)-phenyl]-morpholin-4-yl-methanone], the figures for the IC50 (at GST-JAK2(808-1132); in experiment [1]) were 5.1 nM and 643 nM, respectively.
As for `C[C@@H]1CN[C@@H](C)CN1c1ccc(Nc2ncc3ccn(-c4cc(F)c(C(=O)N5CCOCC5)c(F)c4)c3n2)cn1` (racemic) [Example 269, (4-{2-[6-((2R,5S)-2,5-Dimethyl-piperazin-1-yl)-pyridin-3-ylamino]-pyrrolo[2,3-d]pyrimidin-7-yl}-2,6-difluoro-phenyl)-morpholin-4-yl-methanone], the results for the IC50 (at GST-JAK2(808-1132); in experiment [1]) were 10 nM and 465 nM, respectively.
For the compound `COCc1ccc(Nc2ncc3ccn(-c4ccc(C(=O)N5CCOCC5)cc4)c3n2)cc1` [Example 239, {4-[2-(4-Methoxymethyl-phenylamino)-pyrrolo[2,3-d]pyrimidin-7-yl]-phenyl}-morpholin-4-yl-methanone], the IC50 at GST-JAK2(808-1132) was 3.9 nM; in experiment [1] it was 660 nM.
With `CS(=O)(=O)c1ccc(-n2ccc3cnc(Nc4cccc(CN5CCCCC5)c4)nc32)cc1` [Example 41, [7-(4-Methanesulfonyl-phenyl)-7H-pyrrolo[2,3-d]pyrimidin-2-yl]-(3-piperidin-1-ylmethyl-phenyl)-amine], the IC50 at GST-JAK2(808-1132) is under 3 nM; in experiment [1], 75 nM.
As for `O=C(NCCN1CCOCC1)c1ccc(-n2ccc3cnc(Nc4ccc(F)cc4)nc32)cc1` [Example 62, 4-[2-(4-Fluoro-phenylamino)-pyrrolo[2,3-d]pyrimidin-7-yl]-N-(2-morpholin-4-yl-ethyl)-benzamide], the IC50 turned out to be 180 nM on GST-JAK2(808-1132) and 5390 nM in experiment [1].
For `CS(=O)(=O)c1ccc(-n2ccc3cnc(Nc4ccc(F)c(C(=O)N5CCOCC5)c4)nc32)cc1` [Example 77, {2-Fluoro-5-[7-(4-methanesulfonyl-phenyl)-7H-pyrrolo[2,3-d]pyrimidin-2-ylamino]-phenyl}-morpholin-4-yl-methanone] the same measures were 38 nM and 2620 nM.
The like results for `COc1ccc(Nc2ncc3ccn(-c4ccc(C(=O)N5CCOCC5)c(F)c4)c3n2)cn1` [Example 225, {2-Fluoro-4-[2-(6-methoxy-pyridin-3-ylamino)-pyrrolo[2,3-d]pyrimidin-7-yl]-phenyl}-morpholin-4-yl-methanone] were, in that order, 7.4 nM and 434 nM.

As usually defined, the IC50 is the point on the concentration scale where inhibition reaches its midpoint.
